The target of the assay is T1, GLIC (Gloeobacter violaceus, UniProt Q7NDN8, N194C).
T1 sequence (Q7NDN8 44-359 N194C): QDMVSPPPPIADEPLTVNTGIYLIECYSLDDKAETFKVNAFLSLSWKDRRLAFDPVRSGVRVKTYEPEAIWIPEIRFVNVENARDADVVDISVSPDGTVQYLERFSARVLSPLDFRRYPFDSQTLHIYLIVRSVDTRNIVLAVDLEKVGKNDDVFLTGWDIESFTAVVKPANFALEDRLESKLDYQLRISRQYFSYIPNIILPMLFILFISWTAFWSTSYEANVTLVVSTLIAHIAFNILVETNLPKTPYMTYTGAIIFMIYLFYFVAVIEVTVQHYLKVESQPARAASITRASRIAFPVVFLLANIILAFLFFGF
In words: two-electrode voltage clamp in Xenopus oocytes at EC20. The format is cell-based.

On to `CNC1(c2ccccc2Cl)CCCCC1=O` (stereo not shown) [ketamine], for which half-maximal inhibition (IC50) required 110 µM.

In general, IC50 refers to the concentration that gives 50% inhibition. A lower IC50 goes with greater potency.

The values above are taken from article PMC3446250 (2012).
